In one test the test system is CCRF-CEM. The experiment in a line: Cytotoxicity against human CEM cells after 72 hrs by MTT assay. It is filed as functional, cell-based.
In the next test the test system is HCT-116. Put plainly: cells. The conditions noted are these: Homo sapiens, HCT-116, 72 h.
Another test concerns MDA-MB-435. The experiment in a line: cells. As to conditions: Homo sapiens, MDA-MB-435, 72 h.
The target of a further test is Tubulin (Sus scrofa, UniProt P02554+P02550). The experiment in a line: Inhibition of porcine brain tubulin assembly measured every 1 min for 60 mins by turbidimetric analysis.

Where only a bound is given, the exact number is not on record here.

Description for MDA-MB-435: Cytotoxicity against human MDA-MB-435 cells after 72 hrs by MTT assay

As to `COc1cccc2c1CCC(=O)/C2=C/c1ccc(N(C)C)cc1`, the 50% inhibitory concentration (IC50) in the test on CCRF-CEM was more than 10000 nM; with HCT-116 it was 9780 nM; in the test with MDA-MB-435 it was 7760 nM.
In the same order, the values of `COc1ccc2c(c1)/C(=C\c1ccc(O)cc1)C(=O)CC2` are 1050 nM, 3240 nM and 860 nM.
In the same order, the values of `COc1cccc2c1CCC(=O)/C2=C/c1ccccc1Cl` are 8910 nM, 5770 nM and 3350 nM.
On the same counts, the results for `COc1ccc2c(c1)/C(=C\c1ccc(OC)c(OC)c1)C(=O)CC2` are 270 nM, 1320 nM and 890 nM.
Turning to `COc1cccc2c1CCC(=O)/C2=C/c1ccc(Cl)cc1`, the results for the concentration for half-maximal inhibition (IC50) in the test with CCRF-CEM, in the test on HCT-116 and in the test with MDA-MB-435 were 8530 nM, 7520 nM and 6860 nM, respectively.
On the same counts, the results for `COc1cccc2c1CCC(=O)/C2=C/c1ccc(Br)cc1` are more than 10000 nM, 6800 nM and 7590 nM.
`COc1ccc2c(c1)CCC(=O)/C2=C/c1ccc(OC)c(OC)c1`: the half-inhibitory concentration (IC50) in the test with CCRF-CEM stood at 72 nM; against Tubulin, 6420 nM; with HCT-116, 130 nM; in the test on MDA-MB-435 it was 200 nM.
As for `COc1ccc2c(c1)CCC(=O)/C2=C/c1ccc(C)cc1`, the IC50 with CCRF-CEM turned out to be 2310 nM; with HCT-116, 2560 nM; with MDA-MB-435, 1330 nM.
On the same counts, the results for `COc1cccc2c1CCC(=O)/C2=C/c1ccc(Cl)cc1Cl` are more than 10000 nM, 7140 nM and 9320 nM.
In the same order, the values of `COc1cccc2c1CCC(=O)/C2=C/c1ccccc1` are 8690 nM, more than 10000 nM and 6310 nM.
On the same counts, the results for `COc1cc(/C=C2/C(=O)CCc3c(OC)cccc32)cc(OC)c1` are more than 10000 nM, 5670 nM and 3950 nM.
Take `COc1ccc2c(c1)/C(=C\c1ccc([N+](=O)[O-])cc1)C(=O)CC2`: the IC50 in the test with CCRF-CEM was more than 10000 nM; with HCT-116, 8950 nM; in the test on MDA-MB-435, more than 10000 nM.
On to `COc1ccc2c(c1)CCC(=O)/C2=C/c1cccc(O)c1`, for which the IC50 with CCRF-CEM stood at 1460 nM; in the test on HCT-116 it was 1760 nM; in the test with MDA-MB-435, 760 nM.
For the molecule `COc1ccc2c(c1)/C(=C\c1cc(OC)c(OC)c(OC)c1)C(=O)CC2`, the half-inhibitory concentration (IC50) in the test with CCRF-CEM was 1 nM; on Tubulin, 9630 nM; in the test on HCT-116, 510 nM; in the test with MDA-MB-435 it was 340 nM.
Turning to `COc1cccc2c1CCC(=O)/C2=C/c1ccc(C)cc1`, the half-maximal inhibitory concentration (IC50) in the test with CCRF-CEM, in the test on HCT-116 and in the test with MDA-MB-435 was more than 10000 nM in each case.
`COc1ccc2c(c1)CCC(=O)/C2=C/c1ccc(OC)c(OC)c1OC`: the 50% inhibitory concentration (IC50) in the test with CCRF-CEM came out at 850 nM; against Tubulin it was 25780 nM; with HCT-116, 1680 nM; in the test with MDA-MB-435, 950 nM.
Turning to `COc1cccc2c1CCC(=O)/C2=C/c1ccc(OC)c(OC)c1OC`, the half-inhibitory concentration (IC50) in the test with CCRF-CEM, in the test with HCT-116 and with MDA-MB-435 was more than 10000 nM in each case.
Take `COc1ccc2c(c1)CCC(=O)/C2=C/c1ccc(O)c(OC)c1`: the half-maximal inhibitory concentration (IC50) in the test with CCRF-CEM came out at 5810 nM; in the test with HCT-116 it was 7500 nM; in the test on MDA-MB-435, 4510 nM.
On to `COc1cc(/C=C2/C(=O)CCc3c(OC)cccc32)ccc1O`, for which the IC50 was more than 10000 nM in the test with CCRF-CEM, more than 10000 nM in the test with HCT-116 and 8630 nM in the test with MDA-MB-435.
Regarding `COc1ccc2c(c1)/C(=C\c1ccc(C(F)(F)F)cc1)C(=O)CC2`, the IC50 was more than 10000 nM with CCRF-CEM, 6160 nM in the test with HCT-116 and 6450 nM with MDA-MB-435.
On the same counts, the results for `COc1ccc2c(c1)CCC(=O)/C2=C/c1ccc(N(C)C)cc1` are 8030 nM, 8730 nM and 5680 nM.
`COc1ccc2c(c1)CCC(=O)/C2=C/c1ccc(O)cc1`: the half-inhibitory concentration (IC50) in the test on CCRF-CEM worked out at 960 nM; in the test with HCT-116, 1130 nM; in the test with MDA-MB-435, 450 nM.
In the same order, the values of `COc1ccc2c(c1)CCC(=O)/C2=C/c1ccc(Br)cc1` are 1520 nM, 2940 nM and 1120 nM.
On the same counts, the results for `COc1ccc2c(c1)CCC(=O)/C2=C/c1ccccc1` are 920 nM, 470 nM and 940 nM.
On the same counts, the results for `COc1ccc2c(c1)CCC(=O)/C2=C/c1ccc(Cl)c(Cl)c1` are 1860 nM, 2520 nM and 1230 nM.
As for `COc1cccc2c1CCC(=O)/C2=C/c1c(Cl)cccc1Cl`, the IC50 in the test with CCRF-CEM is 8640 nM; in the test on HCT-116, 6710 nM; in the test with MDA-MB-435 it was more than 10000 nM.
For the molecule `COc1ccc2c(c1)/C(=C\c1ccccc1Cl)C(=O)CC2`, the 50% inhibitory concentration (IC50) with CCRF-CEM came out at 5260 nM; in the test on HCT-116, 2350 nM; in the test with MDA-MB-435 it was 1680 nM.
On the same counts, the results for `COc1ccc2c(c1)CCC(=O)/C2=C/c1ccc(Cl)cc1` are 950 nM, 1250 nM and 890 nM.
In the same order, the values of `COc1cccc2c1CCC(=O)/C2=C/c1ccc(C(C)(C)C)cc1` are more than 10000 nM, more than 10000 nM and more than 10000 nM.
On the same counts, the results for `COc1cccc2c1CCC(=O)/C2=C/c1ccc([N+](=O)[O-])cc1` are more than 10000 nM, 8680 nM and 7680 nM.
`COc1ccc2c(c1)/C(=C\c1ccc(Cl)c(Cl)c1)C(=O)CC2`: the 50% inhibitory concentration (IC50) in the test on CCRF-CEM, in the test with HCT-116 and with MDA-MB-435 was more than 10000 nM in each case.
For `COc1cccc2c1CCC(=O)/C2=C/c1ccc(O)cc1`, the half-maximal inhibitory concentration (IC50) in the test on CCRF-CEM worked out at 4320 nM; with HCT-116, 2690 nM; in the test on MDA-MB-435 it was 1540 nM.
On the same counts, the results for `COc1ccc2c(c1)/C(=C\c1ccc(Cl)cc1Cl)C(=O)CC2` are more than 10000 nM, more than 10000 nM and more than 10000 nM.
In the same order, the values of `COc1ccc2c(c1)/C(=C\c1ccc(C(C)(C)C)cc1)C(=O)CC2` are more than 10000 nM, more than 10000 nM and more than 10000 nM.
On the same counts, the results for `COc1ccc2c(c1)CCC(=O)/C2=C/c1ccc(C(C)(C)C)cc1` are 3100 nM, 6700 nM and 1770 nM.
For `COc1ccc2c(c1)/C(=C\c1ccc(Cl)cc1)C(=O)CC2`, the concentration for half-maximal inhibition (IC50) in the test on CCRF-CEM is more than 10000 nM; with HCT-116, 4690 nM; in the test on MDA-MB-435 it was 5830 nM.
In the same order, the values of `COc1ccc2c(c1)/C(=C\c1ccc(OC)c(OC)c1OC)C(=O)CC2` are 4210 nM, 2680 nM and 1350 nM.
In the same order, the values of `COc1ccc2c(c1)CCC(=O)/C2=C/c1ccc([N+](=O)[O-])cc1` are 680 nM, 2230 nM and 540 nM.
On the same counts, the results for `COc1ccc2c(c1)CCC(=O)/C2=C/c1ccc(C(F)(F)F)cc1` are 1210 nM, 2320 nM and 750 nM.
As to `COc1ccc(/C=C2/C(=O)CCc3c(OC)cccc32)cc1O`, the results for the IC50 with CCRF-CEM, in the test on HCT-116 and in the test with MDA-MB-435 were 6310 nM, more than 10000 nM and 5620 nM, respectively.
On to `COc1ccc2c(c1)CCC(=O)/C2=C/c1ccc(Cl)cc1Cl`, for which the figures for the IC50 with CCRF-CEM, with HCT-116 and in the test on MDA-MB-435 were 1200 nM, 2150 nM and 330 nM, respectively.
For `COc1ccc2c(c1)/C(=C\c1cccc(O)c1)C(=O)CC2`, the IC50 was 2570 nM in the test on CCRF-CEM, 4910 nM in the test on HCT-116 and 2070 nM in the test on MDA-MB-435.
On the same counts, the results for `COc1cccc2c1CCC(=O)/C2=C/c1ccc(Cl)c(Cl)c1` are more than 10000 nM, more than 10000 nM and more than 10000 nM.
`COc1cccc2c1CCC(=O)/C2=C/c1ccc(C(F)(F)F)cc1`: the values for the half-inhibitory concentration (IC50) in the test on CCRF-CEM, with HCT-116 and in the test with MDA-MB-435 were more than 10000 nM, 5380 nM and 5890 nM, respectively.
On the same counts, the results for `COc1ccc2c(c1)/C(=C\c1ccc(N(C)C)cc1)C(=O)CC2` are more than 10000 nM, more than 10000 nM and more than 10000 nM.
In the same order, the values of `COc1ccc2c(c1)/C(=C\c1ccc(O)c(OC)c1)C(=O)CC2` are 6930 nM, more than 10000 nM and 4350 nM.
In the same order, the values of `COc1ccc2c(c1)CCC(=O)/C2=C/c1ccccc1Cl` are 580 nM, 1700 nM and 460 nM.
On to `COc1ccc2c(c1)/C(=C\c1ccc(OC)c(O)c1)C(=O)CC2`, for which the IC50 in the test with CCRF-CEM was determined as 1420 nM; in the test on HCT-116, 1370 nM; with MDA-MB-435, 1050 nM.
For `COc1ccc2c(c1)CCC(=O)/C2=C/c1ccc(OC)c(O)c1`, the IC50 in the test on CCRF-CEM was 120 nM; in the test on HCT-116, 320 nM; with MDA-MB-435 it was 630 nM.
On the same counts, the results for `COc1ccc2c(c1)/C(=C\c1ccc(Br)cc1)C(=O)CC2` are more than 10000 nM, more than 10000 nM and more than 10000 nM.
In the same order, the values of `COc1ccc2c(c1)/C(=C\c1ccccc1)C(=O)CC2` are 1530 nM, 3210 nM and 1450 nM.
In the same order, the values of `COc1ccc(/C=C2/C(=O)CCc3c(OC)cccc32)cc1OC` are 1350 nM, 2120 nM and 1540 nM.
For `COc1ccc2c(c1)/C(=C\c1ccc(C)cc1)C(=O)CC2`, the IC50 in the test on CCRF-CEM amounted to 3770 nM; in the test with HCT-116, 3680 nM; in the test on MDA-MB-435 it was 2620 nM.
On the same counts, the results for `COc1ccc(/C=C2/C(=O)CCc3c(OC)cccc32)cc1` are 2640 nM, 3580 nM and 1370 nM.
In the case of `COc1cc(/C=C2/C(=O)CCc3ccc(OC)cc32)cc(OC)c1`, the IC50 amounted to 260 nM in the test on CCRF-CEM, 500 nM in the test with HCT-116 and 850 nM in the test on MDA-MB-435.
In the same order, the values of `COc1ccc(/C=C2/C(=O)CCc3ccc(OC)cc32)cc1` are 890 nM, 1910 nM and 730 nM.

The values above are taken from ChEMBL document CHEMBL2150986, “Synthesis and biological evaluation of 1-benzylidene-3,4-dihydronaphthalen-2-one as a new class of microtubule-targeting agents” (J Med Chem, 2012).
